# Results reported in the supplement of paper PMC10307832.
# Experiments:
# Assay in all cases: relative viability (nuclei count vs DMSO), 5 days (fraction); higher = more cells survive
# AGI-6780 + Bortezomib = compound: O=C(Nc1cccc(C(F)(F)F)c1)Nc1cc(S(=O)(=O)NC2CC2)ccc1-c1ccsc1 [AGI-6780] + CC(C)C[C@H](NC(=O)[C@H](Cc1ccccc1)NC(=O)c1cnccn1)B(O)O [Bortezomib] (partner 0.002 µM)
# In short: (§1)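 The day after seeding in 1536-well plates, lung cancer cell lines were treated by pin tool with a single drug, or with a fixed anchor-drug dose together with five library-drug doses (not always all listed) in √10 steps. After 5 days, a combined fix-and-stain solution (final 0.05% Triton X-100, 1% formaldehyde, 1 ug/ml Hoechst) was added. Nuclei counted on 4× images gave relative viability as treated counts over vehicle counts, reported as the median of duplicate plates.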
# AGI-6780 + Tozasertib = compound: O=C(Nc1cccc(C(F)(F)F)c1)Nc1cc(S(=O)(=O)NC2CC2)ccc1-c1ccsc1 [AGI-6780] + Cc1cc(Nc2cc(N3CCN(C)CC3)nc(Sc3ccc(NC(=O)C4CC4)cc3)n2)n[nH]1 [Tozasertib] (partner 0.1 µM)
# In short: as §1
# AGI-6780 + Decitabine = compound: O=C(Nc1cccc(C(F)(F)F)c1)Nc1cc(S(=O)(=O)NC2CC2)ccc1-c1ccsc1 [AGI-6780] + Nc1ncn([C@H]2C[C@H](O)[C@@H](CO)O2)c(=O)n1 [Decitabine] (partner 2 µM)
# In short: as §1
# AGI-6780 + AZD7762 = compound: O=C(Nc1cccc(C(F)(F)F)c1)Nc1cc(S(=O)(=O)NC2CC2)ccc1-c1ccsc1 [AGI-6780] + NC(=O)Nc1cc(-c2cccc(F)c2)sc1C(=O)N[C@H]1CCCNC1 [AZD7762] (partner 0.2 µM)
# In short: as §1
Cell Line,relative viability (AGI-6780 + Bortezomib; first compound 0.08 µM),relative viability (AGI-6780 + Bortezomib; first compound 0.253 µM),relative viability (AGI-6780 + Bortezomib; first compound 0.8 µM),relative viability (AGI-6780 + Bortezomib; first compound 2.53 µM),relative viability (AGI-6780 + Bortezomib; first compound 8 µM),relative viability (AGI-6780 + Tozasertib; first compound 0.08 µM),relative viability (AGI-6780 + Tozasertib; first compound 0.253 µM),relative viability (AGI-6780 + Tozasertib; first compound 0.8 µM),relative viability (AGI-6780 + Tozasertib; first compound 8 µM),relative viability (AGI-6780 + Decitabine; first compound 0.08 µM),relative viability (AGI-6780 + Decitabine; first compound 0.253 µM),relative viability (AGI-6780 + Decitabine; first compound 0.8 µM),relative viability (AGI-6780 + Decitabine; first compound 8 µM),relative viability (AGI-6780 + AZD7762; first compound 0.08 µM),relative viability (AGI-6780 + AZD7762; first compound 0.253 µM),relative viability (AGI-6780 + AZD7762; first compound 0.8 µM),relative viability (AGI-6780 + AZD7762; first compound 8 µM),relative viability (AGI-6780 + Tozasertib; first compound 2.53 µM),relative viability (AGI-6780 + AZD7762; first compound 2.53 µM),relative viability (AGI-6780 + Decitabine; first compound 2.53 µM)
IA-LM,0.91,0.876,0.811,0.977,0.829,–,–,–,–,–,–,–,–,–,–,–,–,–,–,–
NCI-H1944,–,–,–,–,–,0.252,0.27,0.247,0.242,0.448,0.445,0.399,0.425,0.538,0.516,0.515,0.55,–,–,–
CAL-12T,–,1.05,0.944,1.31,1.06,0.389,0.32,0.3,0.31,–,–,–,–,0.616,0.649,0.806,0.687,0.276,0.781,–
NCI-H661,0.78,0.933,0.758,0.694,0.771,0.367,0.36,0.357,0.354,0.589,0.567,0.612,0.558,–,–,–,–,0.345,–,0.502
COR-L23,1.05,0.96,0.814,0.935,0.851,0.224,0.216,0.206,0.178,0.449,0.455,0.477,0.416,–,–,–,–,0.213,–,0.399
NCI-H2228,1.11,1.07,0.811,0.896,0.886,0.281,0.278,0.228,0.201,–,–,–,–,–,–,–,–,0.226,–,–
NCI-H520,0.577,0.661,0.63,0.697,0.779,0.486,0.441,0.426,0.446,0.599,0.482,0.434,0.467,–,–,–,–,0.327,–,0.392
